How the values were obtained:
P. aeruginosa ATCC 27853 = experiment: MIC determination, P. aeruginosa ATCC 27853; assay type: cell-based
E.faecium ATCC 51299 = experiment: MIC determination; assay type: cell-based, Enterococcus faecium; settings: duplicate, at least two independent experiments
E. coli ATCC 25922 = experiment: MIC determination; assay type: cell-based, Escherichia coli; settings: for Minimum inhibitory concentration, E. coli ATCC 25922: MIC, duplicate, at least two independent experiments
C. albicans ATCC 28517 = experiment: MIC determination, C. albicans ATCC 28517; assay type: cell-based
S. aureus ATCC 29213 = experiment: MIC determination; assay type: cell-based, Staphylococcus aureus; settings: duplicate, at least two independent experiments
E.faecium ATCC 29212 = experiment: MIC determination; assay type: cell-based, Enterococcus faecium; settings: duplicate, at least two independent experiments
S. aureus ATCC 43300 = experiment: MIC determination; assay type: cell-based, Staphylococcus aureus; settings: duplicate, at least two independent experiments
[1] = tested on: monkey kidney cell line (BSC-1); experiment: Cytotoxicity against monkey kidney cell line BSC-1; assay type: cell-based
[2] = tested on: bacterial strains and cell lines of Table 3; experiment: Cytotoxity and antibacterial activity, all assays; assay type: cell-based
[3] = tested on: human colorectal tumor cell line (HCT-116); experiment: Cytotoxicity against human colorectal tumor cell line HCT-116; assay type: cell-based; settings: maximum tested concentration 50 μg/mL
[4] = tested on: bacteria (broad-spectrum); settings: cited from earlier work

Molecule	Minimum inhibitory concentration, P. aeruginosa ATCC 27853 (P. aeruginosa ATCC 27853)	Minimum inhibitory concentration, E.faecium ATCC 51299 (E.faecium ATCC 51299)	Minimum inhibitory concentration, E. coli ATCC 25922 (E. coli ATCC 25922)	Minimum inhibitory concentration, C. albicans ATCC 28517 (C. albicans ATCC 28517)	Minimum inhibitory concentration, S. aureus ATCC 29213 (S. aureus ATCC 29213)	Minimum inhibitory concentration, E.faecium ATCC 29212 (E.faecium ATCC 29212)	Minimum inhibitory concentration, S. aureus ATCC 43300 (S. aureus ATCC 43300)	Cytotoxicity Bsc-1 (IC50) [1]	Cytotoxity and antibacterial activity in all assays (in words) [2]	Toxicity against HCT-116 (in words) [3]	Antibacterial activity previously reported (in words) [4]	Inhibition of growth of E. coli (in words) (E. coli ATCC 25922; authors' antimicrobial assays)
1-(3′,4′,6′-Tribromo-1′-methoxyphenoxy)-3,5-dibromo-2-methoxybenzene [Compound 3a]	>50 µg/mL	>50 µg/mL	>50 µg/mL	>50 µg/mL	>50 µg/mL	50 µg/mL	>50 µg/mL	>50 µg/mL				
1-(4′,5′,6′-Tribromo-1′-methoxyphenoxy)-3,5-dibromo-2-methoxybenzene [Compound 5a]	>50 µg/mL	>50 µg/mL	>50 µg/mL	>50 µg/mL	>50 µg/mL	>50 µg/mL	>50 µg/mL	>50 µg/mL				
COc1c(Br)cc(Br)cc1Oc1c(Br)c(OC)c(Br)c(Br)c1OC [Compound 8a, 1-(3′,5′,6′-Tribromo-1′,4′-dimethoxy-1′-phenoxy)-3,5-dibromo-2-methoxybenzene]									inactive in all assays	nontoxic		
Oc1c(Br)cc(Br)cc1Oc1ccc(Br)cc1Br [Compound 10]											broad-spectrum antibacterial activity	did not inhibit the growth
